“Also recorded” adds a separate entry of the source.
Assays:
[1] = test system: B. infantis ATCC 15697; assay: Bacterial growth assay (OD600); type: cell-based, Bifidobacterium infantis; conditions: 1% carbohydrate in sMRS+cysteine
Experimental: (§1) Coy Laboratory Products, Grass Lake, Mich.). Subsequently, the cultures are passed twice on a semi-synthetic MRS medium ([…] which is supplemented with 1% (w/v) filter-sterilized glucose as the sole carbohydrate source. […] For bifidobacteria strains, the same procedure is followed except all media are supplemented with 0.5 g/l L-cysteine/HCl. [table] After the 2nd pass in sMRS+glucose+cysteine, the cultures are washed once with 10 mL of sterile sMRS+cysteine (no carbohydrate), resuspended in 10 ml of sterile sMRS+cysteine (no carbohydrate) and then used as a 1% inoculum. The carbohydrates are sterilized with a 0.22 micron filter and used at a 1% final concentration. Cell growth is performed in 250 μL of sMRS+cysteine covered with 50 μL of mineral oil in a Bioscreen 100-well Honeycomb plate. […] The plate reader is operated in discontinuous mode, with absorbance readings performed in 30-minute intervals, and preceded by 30-second shaking intervals at maximum speed. Controls consist of inoculated medium lacking carbohydrate. […] All three plates include a positive control (glucose) and negative control (no carbohydrate). The OD600 data for each carbohydrate is corrected by subtracting the OD600 of the basal media (sMRS)+cysteine from the sample plate for each probiotic. Maximum OD is determined by inspection of the corrected growth data. OD is determined by subtracting the initial corrected OD (time point 0) from the maximum corrected OD. Samples are grown in biologically independent triplicates and the resulting growth kinetic data are expressed as the mean of these replicates. For the growth curve plots, OD600 vs. time is first plotted for the bacteria grown on medium lacking carbohydrate (sMRS). For all other carbohydrates, the OD600 data is corrected by subtracting the OD600 of sMRS.

[2] = test system: B. infantis M-63; assay: Bacterial growth assay (OD600); type: cell-based, Bifidobacterium infantis; conditions: 1% carbohydrate in sMRS+cysteine
Experimental: as §1

[3] = test system: HT-29 cells; assay: HT-29 cell proliferation, BrdU assay; type: cell-based, human
Experimental: In a first experiment, HT-29 cells, which model the immature epithelial cells of the small intestine, are incubated in a humidified atmosphere of 5% carbon dioxide at 37 C in the presence of LNnT at concentrations of 0 mg/L (“0”), 100 mg/L (“100”), 200 mg/L (“200”), and 400 mg/L (“400”) for either 48 hours or 72 hours. The culture medium utilized is Dulbecco's Modified Eagle Medium (Life Technologies, Foster City Calif.) supplemented with 10% fetal calf serum and 2 mM glutamine. The control consists of a combination of 91.5 mg lactose and 62.4 mg galactosamine (“LG”) per Liter of the Dulbecco's Modified Eagle Medium set forth above. The impact of the LNnT at various levels and the control on HT-29 cell proliferation is measured using a conventional BrdU assay, which measures the number of cells that have recently synthesized DNA.
(§2) In a first experiment, HT-29 cells, which model the immature epithelial cells of the small intestine, are incubated in a humidified atmosphere of 5% carbon dioxide at 37° C. in the presence of LNnT or 2′FL at concentrations of 0 mg/L (“0”), 20 mg/L (“20”), 200 mg/L (“200”), and 2000 mg/L (“2000”) or in the presence of 6′SL at concentrations of 0 mg/mL (“0”), 40 mg/mL (“40”), 400 mg/mL (“400”), and 4000 mg/mL (“4000”) for 72 hours. The culture medium utilized is Dulbecco's Modified Eagle Medium (Life Technologies, Foster City Calif.) supplemented with 10% fetal calf serum and 2 mM glutamine. The controls (“energy”) consist of 91.5 mg lactose and 64.2 mg N-acetyllactosamine/L for LNnT; 133 mg lactose and 67 mg fucose/L for 2′FL; and 195 mg lactose and 205 mg/L sialic acid for 6′SL. The impact of the LNnT, 2′FL, and 6′SL at various levels and the controls on HT-29 cell proliferation is measured using a conventional BrdU assay, which measures the number of cells that have recently synthesized DNA. […] Additionally, the impact of LNnT, 2′FL, and 6′SL at various levels and the controls on the alkaline phosphatase activity per milligram of protein for HT-29 cells, which is an indicator of cell differentiation, is measured.

[4] = test system: Caco-2 cells; assay: Transepithelial resistance (barrier function), Caco-2, Ussing chambers; type: cell-based, human; conditions: Example 48, more mature Caco-2 cells
Source text: FIGS. 46-48 illustrate the effect of LNnT, 2′FL, and 6′SL on cell resistance (transepithelial resistance), which is a marker for epithelial barrier function, wherein a higher resistance is associated with a higher barrier function. Epithelial cell resistance or barrier function is a measure of differentiated epithelial cell function. Specifically, as the cells mature, tighter junctions between the cells are formed resulting in a stronger epithelial cell barrier. This barrier prevents the movement of large molecules, bacteria, or viruses from one side of the barrier to the other. […] Transepithelial resistance is measured using Transwell Snapwell inserts containing the desired cell culture were transferred to modified Ussing chambers and bathed in modified Kreb's solution at 37 C with 95% oxygen and 5% carbon dioxide. Transepithelial resistance was measured as the passive transport of ions across the monolayers.

[5] = test system: HT-29 cells; assay: Alkaline phosphatase activity per milligram of protein (cell differentiation), HT-29; type: cell-based, human; conditions: Example 48: LNnT or 2′FL 20, 200, 2000 mg/L; 6′SL 40, 400; 72 hours
Experimental: as §2

[6] = test system: infant fecal bacteria; assay: In vitro substrate fermentation model with infant feces (pH, SCFA, lactate); type: cell-based, human infant
[7] = test system: Bifidobacterium spp.; assay: qPCR of bacterial populations in in vitro fecal fermentation; type: cell-based; conditions: overall, 0-12 h fermentation

CC(=O)N[C@H]1[C@H](O[C@H]2[C@@H](O)[C@@H](CO)O[C@@H](O[C@H]3[C@H](O)[C@@H](O)C(O)O[C@@H]3CO)[C@@H]2O)O[C@H](CO)[C@@H](O[C@@H]2O[C@H](CO)[C@H](O)[C@H](O)[C@H]2O)[C@@H]1O (mixture of isomers) [LNnT, Lacto-N-neotetraose]
growth / ability to ferment (OD600) [1]: grow well
growth / ability to ferment (OD600) [2]: grow well
HT-29 cell proliferation ([3]; Example 47: 100, 200, 400 mg/L, 48 or 72 hours): reduced HT-29 cell proliferation; also recorded: inhibits intestinal cell proliferation
HT-29 cell proliferation ([3]; Example 48: LNnT or 2′FL 20, 200, 2000 mg/L, 6′SL 40, 400, 72 hours): capable of reducing cell proliferation at higher doses; also recorded: inhibits intestinal cell proliferation in immature epithelial cells
cell resistance (transepithelial resistance), barrier function [4]: can have a positive effect on cell resistance; also recorded: can positively affect barrier function of more mature cells
alkaline phosphatase activity per milligram of protein (cell differentiation) [5]: trend toward an increase
fermentation rate [6]: about 4,488 μg/g of dry matter/hour
acetate production ([6]; 3 and 6 h): produce similar amounts of acetate
acetate production ([6]; 6 h): less acetate than GOS
acetate production, formula fed versus breast fed infants ([6]; 12 h): greater
lactate production ([6]; 12 h): greater (P<0.0001) compared to gum Arabic
total SCFA production, formula fed versus breast fed infants ([6]; after 3, 6 and 12 h of fermentation): greater (P=0.01) fermentation by formula fed infants
pH change from baseline ([6]; at 3, 6 and 12 h after inoculation): greatest
fermentability by infant fecal bacteria ([6]; overall): highly fermentable; also recorded: readily fermented
propionate production ([6]; overall): greater (P<0.0001) propionate production than gum Arabic
relative rate of fermentation ([6]; overall): fermented more rapidly than 6′SL; also recorded: fermentation rates similar to GOS
lactate production ([6]; time not stated (between the 3 h and 12 h statements)): greater (P<0.0001)
lactate accumulation ([6]; up to 12 h): significant amounts of lactate
bifidobacteria populations [7]: may also be bifidogenic; also recorded: tended to generally increase bifidobacteria levels

Reference: patent US11337990B2, “Human milk oligosaccharides to promote growth of beneficial bacteria” (ABBOTT LABORATORIES, priority 2010, dated 2022)
